We go through three compounds from patent US8147444B2, “Methods of treating or preventing peritonitis with oxidative reductive potential water solution” (Oculus Innovative Sciences, Inc., priority 2006, dated 2012).

Data set [1] concerns human diploid fibroblasts (HDFs). The data set is described as follows: Cell viability, apoptosis and necrosis by flow cytometry. The following applies: 880 mM. The format is cell-based. As to the method:
HP is known to be toxic to eukaryotic cells, increasing apoptosis and necrosis and reducing cellular viability. […] HDF cultures were obtained from three different foreskins, which were pooled and cryopreserved together for the purpose of this study. Only diploid cells were used for all experiments. […] Simultaneous analyses of these parameters were performed in the same cell populations by flow cytometry using: […] B) Annexin V-FITC; and C) Propidium iodide. FIG. 4A-4C disclose percentage values expressed as mean±SD (n=3).
(Flow cytometry measures light scatter and fluorescence of single cells or particles in a stream.)

Another data set relates to primary HDF cultures. To be noted: human, 1 month, 5 µM.
The subject of data set [2] is murine polychromatic erythrocytes. The procedure: The mammalian in vivo micronucleus test is used for the identification of substances which cause damage to chromosomes or the mitotic apparatus of murine polychromatic erythrocytes. This damage results in the formation of “micronuclei,” intracellular structures containing lagging chromosome fragments or isolated whole chromosomes. […] The positive control mice received a single intraperitoneal injection of cyclophosphamide (8 mg/mL, 12.5 ml/kg) on day 2. All mice were observed immediately after injection for any adverse reactions. […] On day 3, all mice were weighed and terminated.
The femurs were excised from the terminated mice, the bone marrow was extracted, and duplicate smear preparations were performed for each mouse. The bone marrow slides for each animal were read at 40× magnification. The ratio of polychromatic erythrocytes (PCE) to normochromatic erythrocytes (NCE), an index of bone marrow toxicity, was determined for each mouse by counting a total of at least 200 erythrocytes. Then a minimum of 2000 scoreable PCE per mouse were evaluated for the incidence of micronucleated polychromatic erythrocytes. Statistical analysis of the data were done using the Mann and Whitney test (at 5% risk threshold) from a statistical software package (Statview 5.0, SAS Institute Inc., USA).

In data set [3] the test system is B. atropheus spores, Pseudomonas aeruginosa, and Staphylococcus aureus. The data set is described as follows: Bacterial suspension assay, test organisms not told apart. Type of data set: cell-based. The following applies: Bacitracin 33 Units/ml; over the time periods tested. As to the method:
Dermacyn is a ready to use product, therefore performing dilutions during testing was not required.
A purchased spore suspension of B. atropheus at 2.5×10^7/ml was used for testing. In addition fresh suspensions of Pseudomonas aeruginosa, and Staphylococcus aureus were prepared and measured using a spectrophotometer to ensure the titer was acceptable
Nine microliters of test substance was added to 100 ul of microbe suspension. The test mixture was held at 20° C. for the contact times of 20 seconds, 5 minutes, and 20 minutes. […] (entire mixture) was added to 9.0 ml of neutralizer for 20 minutes (this is the original neutralization tube or ONT) 1.0 ml of the neutralized test mixture was plated on Tryptic Soy Agar in duplicate for the 5 minute and 20 minute contact times. Additional dilutions and spread plates were used for the 20 second time point, to achieve countable plates.
All plates were incubated at 30° C.-35° C. for a total of 3 days and were evaluated after each day of incubation.

Read-outs that look alike come from different tables or passages of the source. Bridge positions count the residues as written; N and C are the ends. Square brackets hold non-standard residues; d marks the D form. Peptide text beside a SMILES is read from it. * marks the point of attachment. Ileψ(thiazoline)Cys = CC[C@H](C)[C@H](N)C1=N[C@H](C(=O)*)CS1; dOrn = NCCC[C@@H](N)C(=O)O

For `OO` [HP, hydrogen peroxide], the “Apoptosis, cells exposing Annexin-V” value in data set [1] (5 min) is reported as 15%; in data set [1] (30 min), 20%. The “Cells with SA-β-Gal expression” value in the data set on primary HDF cultures is recorded as 86%.

`O=P1(N(CCCl)CCCl)NCCCO1` (centres unmarked) [cyclophosphamide]: the “number of polychromatic erythrocytes bearing micronuclei” value in data set [2] (females, negative control 1.0) worked out at 12.6; in data set [2] (males, negative control 0.6) it was 11.0. Moreover, the PCE/NCE ratio in data set [2] (females, negative control 1.02) is given as 0.73; in data set [2] (males, negative control 0.90) it was 0.77.

As to `CC[C@H](C)[C@H](N)C1=N[C@H](C(=O)N[C@@H](CC(C)C)C(=O)N[C@H](CCC(=O)O)C(=O)N[C@H](C(=O)N[C@H]2CCCCNC(=O)[C@H](CC(N)=O)NC(=O)[C@@H](CC(=O)O)NC(=O)[C@H](Cc3cnc[nH]3)NC(=O)[C@@H](Cc3ccccc3)NC(=O)[C@H]([C@@H](C)CC)NC(=O)[C@@H](CCCN)NC2=O)[C@@H](C)CC)CS1` [Bacitracin] ({Ileψ(thiazoline)Cys}-L[dE]IK[dOrn]I[dF]H[dD]N; lactam 4-C), the “lowering of bacterial or spore populations” value in data set [3] is recorded as “no evidence of lowering the bacterial or spore populations”.
